Measured values: patent US10604487B2, “Pyridinol derivative or pharmaceutically acceptable salt thereof, and pharmaceutical composition containing same as active ingredient” (Research Cooperation Foundation of Yeungnam University, priority 2016, dated 2020)
Where two headings read alike, the source gives them in different places.

Assays:
[1] = Cytotoxicity test (MTT), HT-29; assay type: cell-based; conditions: human, HT-29, 48 h; for viability at 48 h, 0.01 µM / viability at 48 h, 0.1 µM / viability at 48 h, 1 µM / viability at 48 h, 10 µM / viability at 48 h, 100 µM: HT-29 cells (colorectal cancer cell line), read-out: Cell viability (% of control); for IC50 at 48 h: HT-29 cells
Method: (§1) The human colorectal cancer cell line HT-29 and the monocytic blood cancer-derived cell line U937 were cultured in a RPMI 1640 medium containing 10% FBS and 1% penicillin/streptomycin (PS) at 37° C. under a condition of 5% CO2, and when the cells used herein were grown to 80% or more, they were subcultured at a ratio of 1:3.
(§2) Each type of cells were cultured in a 96 well plate at a concentration of 1×10^5 cells/cm2, treated with a test compound by concentration in a medium only containing 1% FBS and 1% PS at 37° C. under a condition of 5% CO2 for 48 hours and reacted with 5 mg/mL of a 3-[4,5-dimethylthiazol-2-yl]-2,5-diphenyltetrazolium bromide (MTT) reagent for 4 hours, and then the medium was completely removed, the cells were treated with DMSO, formazan crystals were dissolved for 30 minutes, and then absorbance was measured at 540 nm.

[2] = Cytotoxicity test (MTT), U937; assay type: cell-based; conditions: human, U937, 48 h; for viability at 48 h, 0.01 µM / viability at 48 h, 0.1 µM / viability at 48 h, 1 µM / viability at 48 h, 10 µM / viability at 48 h, 100 µM: U937 cells (monocytic blood cancer-derived cell line), read-out: Cell viability (% of control); for IC50 at 48 h: U937 cells
Method: as §1, §2

[3] = test system: TNF-α-induced adhesion of monocytes to intestinal epithelial cells; test: Inhibitory activity against TNF-α-induced adhesion of monocytes (U937) to intestinal epithelial cells (HT-29); assay type: cell-based, human; conditions: Homo sapiens
Method: HT-29 human colorectal cancer-derived epithelial cells and U937 human-derived monocytic cells were cultured in an RPMI 1640 medium containing 10% FBS and 1% penicillin/streptomycin (PS) at 37° C. under a condition of 5% CO2, and when the cells were grown to 80% or more in a culture flask, they were subcultured in a ratio of 1:3 to be used in this test. The HT-29 cells were cultured in a 24-well plate at a concentration of 2×10^5 cells/cm2, and then the medium only containing 1% FBS and 1% PS was pretreated with a test drug for 1 hour. Afterward, BCECF-loaded U937 cells by being treated with 10 μg/mL of BCECF-AM at 37° C. for 30 minutes and 10 ng/mL of TNF-α reacted with the HT-29 cells previously treated with the test drug at 37° C. for 3 hours. After the reaction, the medium was removed, and then the cells were washed with PBS twice to remove U937 cells that were not adhered. In a subsequent step, for cell lysis, 0.1% Triton X-100 (0.1 M Tris) was treated to allow a reaction at room temperature for 30 minutes, and then fluorescence was measured using a Fluostar optima microplate reader (BMG LABTECH, Germany) to quantify the cells (Carvalho et al., 1996; Thapa et al., 2008).

[4] = read-out: IC50 (μM), cytotoxicity
[5] = 1 μM test drug, HT-29/U937 adhesion, 10 ng/mL TNF-α, read-out: Inhibitory activity (%)

Structure (SMILES)	viability at 48 h, 0.01 µM [1]	viability at 48 h, 0.1 µM [1]	viability at 48 h, 1 µM [1]	viability at 48 h, 10 µM [1]	viability at 48 h, 100 µM [1]	IC50 at 48 h [1, 4]	viability at 48 h, 0.01 µM [2]	viability at 48 h, 0.1 µM [2]	viability at 48 h, 1 µM [2]	viability at 48 h, 10 µM [2]	viability at 48 h, 100 µM [2]	IC50 at 48 h [2]	inhibition at 1 µM [3, 5]	IC50 at 48 h ([1]; text of b533, read-out: cytotoxicity IC50 for HT-29)	inhibition at 1 µM ([3]; 1 μM, Table 8, read-out: 1 μM concentration inhibitory activity)	IC50 ([3]; HT-29/U937 adhesion, TNF-α-induced, read-out: IC50 (adhesion inhibition))
Cc1nc(NC(=S)Nc2ccc(Cl)cc2)c(C)c(C)c1O [Compound 18-6, 1-(4-chlorophenyl)-3-(5-hydroxy-3,4,6-trimethylpyridin-2-yl)thiourea]	95.2 ± 3.2%	86.6 ± 4.9%	83.6 ± 3.3%	72.8 ± 2.8%	65.3 ± 1.9%	> 100 µM	99.6 ± 0.5%	96.8 ± 1.9%	91.6 ± 2.6%	86.4 ± 1.7%	80.7 ± 2.5%	> 100 µM	≥ 50%	–	–	–
Cc1nc(NC(=O)OCCCl)c(C)c(C)c1O [Compound 20-4, 2-Chloroethyl (5-hydroxy-3,4,6-trimethylpyridin-2-yl)carbamate]	97.4 ± 2.2%	94.7 ± 3.3%	88.6 ± 2.2%	90.2 ± 5.3%	86.7 ± 3.1%	> 100 µM	86.1 ± 3.1%	82.7 ± 1%	83.4 ± 1.3%	83 ± 0.5%	79.2 ± 1.3%	> 100 µM	-1.5%	–	–	–
Cc1nc(NS(=O)(=O)c2ccc([N+](=O)[O-])cc2)c(C)c(C)c1O [Compound 22-4, N-(5-hydroxy-3,4,6-trimethylpyridin-2-yl)-4-nitrobenzenesulfonamide]	96.6 ± 1.3%	97.8 ± 2.4%	96.3 ± 1.7%	85.4 ± 6.7%	64.8 ± 7.1%	> 100 µM	95.2 ± 4.6%	93.3 ± 0.8%	80.2 ± 11.7%	84.7 ± 1.7%	70.6 ± 0.4%	> 100 µM	-2.3%	–	–	–
CCCNC(=O)Nc1nc(C)c(O)c(C)c1C [Compound 16-1, 1-(5-hydroxy-3,4,6-trimethylpyridin-2-yl)-3-propylurea]	94.9 ± 6.5%	84.4 ± 7.6%	84.4 ± 4.2%	70.9 ± 6.2%	42.8 ± 2.7%	–	89.1 ± 3.5%	88.4 ± 3.5%	90 ± 4.8%	75.2 ± 0.9%	44.2 ± 0.7%	15.4 µM	18.2%	64.6 µM	–	–
Cc1nc(NC(=O)Nc2ccc(Cl)cc2)c(C)c(C)c1O [Compound 16-3, 1-(4-Chlorophenyl)-3-(5-hydroxy-3,4,6-trimethylpyridin-2-yl)urea]	104 ± 6.1%	102 ± 6.4%	103 ± 11.1%	89.3 ± 4.8%	69.2 ± 6.1%	> 100 µM	89.4 ± 2.7%	89.7 ± 3.1%	81 ± 3.1%	81 ± 2.2%	66 ± 0.1%	> 100 µM	7.7%	–	–	–
Cc1nc(NS(=O)(=O)c2cccc3ccccc23)c(C)c(C)c1O [Compound 22-5, N-(5-hydroxy-3,4,6-trimethylpyridin-2-yl)naphthalene-1-sulfonamide]	95.2 ± 3.3%	86.7 ± 6.5%	87.8 ± 3.2%	89.1 ± 3.5%	88.8 ± 1.2%	> 100 µM	102 ± 5.4%	93.4 ± 1.2%	92.6 ± 0.9%	85.1 ± 3.1%	62.5 ± 2%	> 100 µM	–	–	80.6%	0.23 µM
Cc1nc(NC(=S)NC2CCCCC2)c(C)c(C)c1O [Compound 18-3, 1-cyclohexyl-3-(5-hydroxy-3,4,6-trimethylpyridin-2-yl)thiourea]	90.9 ± 5.1%	80.5 ± 10.4%	66.8 ± 6.2%	67 ± 5%	51.3 ± 6.7%	> 100 µM	88.8 ± 7%	93.1 ± 1%	97.6 ± 1.3%	87.7 ± 2%	84.3 ± 1.5%	> 100 µM	≥ 50%	–	–	–
Cc1nc(NS(C)(=O)=O)c(C)c(C)c1O [Compound 22-1, N-(5-hydroxy-3,4,6-trimethylpyridin-2-yl)methanesulfonamide]	87.6 ± 3.3%	75.7 ± 8.2%	76.1 ± 3.6%	63.5 ± 1.8%	43 ± 1.9%	50.1 µM	97.6 ± 5%	94.8 ± 3.8%	95.7 ± 2.4%	94.4 ± 0.4%	94.4 ± 2.5%	> 100 µM	18.7%	–	–	–
CCCCNC(=S)Nc1nc(C)c(O)c(C)c1C [Compound 18-1, 1-butyl-3-(5-hydroxy-3,4,6-trimethylpyridin-2-yl)thiourea]	93.5 ± 3.4%	95.2 ± 1.7%	96.9 ± 1.4%	96.5 ± 2.3%	60.3 ± 0.5%	> 100 µM	95.4 ± 0.6%	94.9 ± 1.2%	92.9 ± 0.6%	91 ± 0.9%	55 ± 1.1%	> 100 µM	-19.9%	–	–	–
